Experimental data published in ChEMBL document CHEMBL3885861, “Open TG-GATES”.

Organism: Rattus norvegicus
Assay: Open TG-GATES - Regimen: Single
Type: toxicity, organism-based, Sprague-Dawley
Set-up: regimen Single, gender Male, age 6 weeks
Details: in vivo, ip, 0 mg/kg, route intraperitoneal injection, dose level Control; for APTT / Bas / Eos / Fbg / Hb / Ht / Lym / MCH / MCHC / MCV / Mono / Neu / PT / Plat / RBC / Ret / WBC: tissue Blood; for KIDNEY_L / KIDNEY_R / KIDNEY_TOTAL: tissue Kidney; for LIVER: tissue Liver; for A/G / ALP / ALT / AST / BUN / CRE / Ca / Cl / DBIL / GLC / IP / K / LDH / Na / PL / RALB / TBIL / TC / TG / TP / gamma-GTP: tissue Plasma

Q: How did the TERMINAL_BW (3 h) turn out when `CCCCS(=N)(=O)CCC(N)C(=O)O` (configuration not stated) [BUTHIONINE SULFOXIMINE] was run?
A: 217.4 g

Q: What about the APTT (3 h) of the same compound?
A: 16.3 s

Q: What about the Bas (3 h) of the same compound?
A: 0%

Q: What about the Eos (3 h) of the same compound?
A: 0.6%

Q: What about the Fbg (3 h) of the same compound?
A: 214.6 mg/dL

Q: What about the Hb (3 h) of the same compound?
A: 13.1 g/dL

Q: And the Ht (3 h)?
A: 39.2%

Q: And the Lym (3 h)?
A: 66.4%

Q: And the MCH (3 h)?
A: 21.9 pg

Q: And the MCHC (3 h)?
A: 33.4%

Q: And the MCV (3 h)?
A: 65.6 fL

Q: And the Mono (3 h)?
A: 10%

Q: What about the Neu (3 h) of the same compound?
A: 23.4%

Q: What about the PT (3 h) of the same compound?
A: 11.9 s

Q: What about the Plat (3 h) of the same compound?
A: 108.9 x10_4/uL

Q: What about the RBC (3 h) of the same compound?
A: 598.2 x10_4/ul

Q: And the Ret (3 h)?
A: 8.3%

Q: What about the WBC (3 h) of the same compound?
A: 104.5 x10_2/uL

Q: And the KIDNEY_L (3 h)?
A: 1 g

Q: What about the KIDNEY_R (3 h) of the same compound?
A: 1 g

Q: What about the KIDNEY_TOTAL (3 h) of the same compound?
A: 2 g

Q: And the LIVER (3 h)?
A: 10.4 g

Q: And the A/G (3 h)?
A: 2.3

Q: And the ALP (3 h)?
A: 962.6 IU/L

Q: What about the ALT (3 h) of the same compound?
A: 44 IU/L

Q: What about the AST (3 h) of the same compound?
A: 81 IU/L

Q: And the BUN (3 h)?
A: 12.8 mg/dL

Q: What about the CRE (3 h) of the same compound?
A: 0.5 mg/dL

Q: And the Ca (3 h)?
A: 10.9 mg/dL

Q: What about the Cl (3 h) of the same compound?
A: 104.4 meq/L

Q: And the DBIL (3 h)?
A: 0.086 mg/dL

Q: And the GLC (3 h)?
A: 190 mg/dL

Q: And the IP (3 h)?
A: 10.5 mg/dL

Q: And the K (3 h)?
A: 4.6 meq/L

Q: And the LDH (3 h)?
A: 100.4 IU/L

Q: And the Na (3 h)?
A: 140.6 meq/L

Q: What about the PL (3 h) of the same compound?
A: 139.6 mg/dL

Q: And the RALB (3 h)?
A: 3.7 g/dL

Q: And the TBIL (3 h)?
A: 0.4 mg/dL

Q: What about the TC (3 h) of the same compound?
A: 76 mg/dL

Q: And the TG (3 h)?
A: 63.8 mg/dL

Q: And the TP (3 h)?
A: 5.4 g/dL

Q: And the gamma-GTP (3 h)?
A: 1.2 IU/L

Q: And the TERMINAL_BW (6 h)?
A: 211.9 g

Q: And the APTT (6 h)?
A: 16.7 s

Q: And the Bas (6 h)?
A: 0%

Q: And the Eos (6 h)?
A: 0.8%

Q: And the Fbg (6 h)?
A: 221 mg/dL

Q: And the Hb (6 h)?
A: 13.3 g/dL

Q: And the Ht (6 h)?
A: 39.9%

Q: What about the Lym (6 h) of the same compound?
A: 68.2%

Q: And the MCH (6 h)?
A: 21.9 pg

Q: And the MCHC (6 h)?
A: 33.3%

Q: And the MCV (6 h)?
A: 65.9 fL

Q: What about the Mono (6 h) of the same compound?
A: 5%

Q: And the Neu (6 h)?
A: 26%

Q: What about the PT (6 h) of the same compound?
A: 10.8 s

Q: And the Plat (6 h)?
A: 112.3 x10_4/uL

Q: What about the RBC (6 h) of the same compound?
A: 605.2 x10_4/ul

Q: What about the Ret (6 h) of the same compound?
A: 9.1%

Q: What about the WBC (6 h) of the same compound?
A: 106.4 x10_2/uL

Q: And the KIDNEY_L (6 h)?
A: 1 g

Q: And the KIDNEY_R (6 h)?
A: 1 g

Q: What about the KIDNEY_TOTAL (6 h) of the same compound?
A: 1.9 g

Q: What about the LIVER (6 h) of the same compound?
A: 9.5 g

Q: And the A/G (6 h)?
A: 2

Q: And the ALP (6 h)?
A: 754.6 IU/L

Q: What about the ALT (6 h) of the same compound?
A: 38.2 IU/L

Q: And the AST (6 h)?
A: 68 IU/L

Q: And the BUN (6 h)?
A: 11.4 mg/dL

Q: What about the CRE (6 h) of the same compound?
A: 0.7 mg/dL

Q: What about the Ca (6 h) of the same compound?
A: 10.9 mg/dL

Q: And the Cl (6 h)?
A: 105.6 meq/L

Q: And the DBIL (6 h)?
A: 0.014 mg/dL

Q: And the GLC (6 h)?
A: 197.6 mg/dL

Q: What about the IP (6 h) of the same compound?
A: 9.8 mg/dL

Q: What about the K (6 h) of the same compound?
A: 4.9 meq/L

Q: What about the LDH (6 h) of the same compound?
A: 58.2 IU/L

Q: What about the Na (6 h) of the same compound?
A: 140.2 meq/L

Q: What about the PL (6 h) of the same compound?
A: 139.4 mg/dL

Q: What about the RALB (6 h) of the same compound?
A: 3.5 g/dL

Q: What about the TBIL (6 h) of the same compound?
A: 0.4 mg/dL

Q: And the TC (6 h)?
A: 78.2 mg/dL

Q: What about the TG (6 h) of the same compound?
A: 62.8 mg/dL

Q: What about the TP (6 h) of the same compound?
A: 5.3 g/dL

Q: What about the gamma-GTP (6 h) of the same compound?
A: 1.6 IU/L

Q: What about the TERMINAL_BW (9 h) of the same compound?
A: 214.6 g

Q: And the APTT (9 h)?
A: 17.1 s

Q: What about the Bas (9 h) of the same compound?
A: 0%

Q: And the Eos (9 h)?
A: 1%

Q: And the Fbg (9 h)?
A: 231 mg/dL

Q: What about the Hb (9 h) of the same compound?
A: 13.4 g/dL

Q: And the Ht (9 h)?
A: 40.5%

Q: What about the Lym (9 h) of the same compound?
A: 74.8%

Q: And the MCH (9 h)?
A: 21.5 pg

Q: What about the MCHC (9 h) of the same compound?
A: 33%

Q: What about the MCV (9 h) of the same compound?
A: 65.1 fL

Q: What about the Mono (9 h) of the same compound?
A: 5.6%

Q: What about the Neu (9 h) of the same compound?
A: 19%

Q: And the PT (9 h)?
A: 11 s

Q: And the Plat (9 h)?
A: 114 x10_4/uL

Q: And the RBC (9 h)?
A: 622.2 x10_4/ul

Q: And the Ret (9 h)?
A: 9.5%

Q: What about the WBC (9 h) of the same compound?
A: 101.1 x10_2/uL

Q: And the KIDNEY_L (9 h)?
A: 1 g

Q: And the KIDNEY_R (9 h)?
A: 1 g

Q: What about the KIDNEY_TOTAL (9 h) of the same compound?
A: 1.9 g

Q: And the LIVER (9 h)?
A: 8.9 g

Q: What about the A/G (9 h) of the same compound?
A: 2.1

Q: What about the ALP (9 h) of the same compound?
A: 838 IU/L

Q: What about the ALT (9 h) of the same compound?
A: 34.4 IU/L

Q: And the AST (9 h)?
A: 65.8 IU/L

Q: And the BUN (9 h)?
A: 12.8 mg/dL

Q: What about the CRE (9 h) of the same compound?
A: 0.5 mg/dL

Q: And the Ca (9 h)?
A: 11 mg/dL

Q: What about the Cl (9 h) of the same compound?
A: 106 meq/L

Q: What about the DBIL (9 h) of the same compound?
A: 0.006 mg/dL

Q: And the GLC (9 h)?
A: 203.4 mg/dL

Q: And the IP (9 h)?
A: 10.3 mg/dL

Q: What about the K (9 h) of the same compound?
A: 4.9 meq/L

Q: What about the LDH (9 h) of the same compound?
A: 60.8 IU/L

Q: What about the Na (9 h) of the same compound?
A: 139.2 meq/L

Q: What about the PL (9 h) of the same compound?
A: 146.6 mg/dL

Q: And the RALB (9 h)?
A: 3.8 g/dL

Q: What about the TBIL (9 h) of the same compound?
A: 0.3 mg/dL

Q: And the TC (9 h)?
A: 85 mg/dL

Q: What about the TG (9 h) of the same compound?
A: 57 mg/dL

Q: What about the TP (9 h) of the same compound?
A: 5.6 g/dL

Q: What about the gamma-GTP (9 h) of the same compound?
A: 1.2 IU/L

Q: And the TERMINAL_BW (24 h)?
A: 226.3 g

Q: What about the APTT (24 h) of the same compound?
A: 17.2 s

Q: What about the Bas (24 h) of the same compound?
A: 0%

Q: And the Eos (24 h)?
A: 1%

Q: What about the Fbg (24 h) of the same compound?
A: 231.6 mg/dL

Q: What about the Hb (24 h) of the same compound?
A: 13.6 g/dL

Q: What about the Ht (24 h) of the same compound?
A: 41%

Q: What about the Lym (24 h) of the same compound?
A: 75.4%

Q: And the MCH (24 h)?
A: 21.3 pg

Q: What about the MCHC (24 h) of the same compound?
A: 33.1%

Q: What about the MCV (24 h) of the same compound?
A: 64.5 fL

Q: And the Mono (24 h)?
A: 8.4%

Q: And the Neu (24 h)?
A: 15.2%

Q: And the PT (24 h)?
A: 11.4 s

Q: What about the Plat (24 h) of the same compound?
A: 115.5 x10_4/uL

Q: What about the RBC (24 h) of the same compound?
A: 636.4 x10_4/ul

Q: What about the Ret (24 h) of the same compound?
A: 8.8%

Q: What about the WBC (24 h) of the same compound?
A: 88.5 x10_2/uL

Q: And the KIDNEY_L (24 h)?
A: 1 g

Q: What about the KIDNEY_R (24 h) of the same compound?
A: 1 g

Q: What about the KIDNEY_TOTAL (24 h) of the same compound?
A: 2 g

Q: And the LIVER (24 h)?
A: 11 g

Q: What about the A/G (24 h) of the same compound?
A: 1.8

Q: What about the ALP (24 h) of the same compound?
A: 826.4 IU/L

Q: What about the ALT (24 h) of the same compound?
A: 37.8 IU/L

Q: And the AST (24 h)?
A: 63.2 IU/L

Q: And the BUN (24 h)?
A: 17.8 mg/dL

Q: And the CRE (24 h)?
A: 0.5 mg/dL

Q: And the Ca (24 h)?
A: 11.2 mg/dL

Q: And the Cl (24 h)?
A: 103.6 meq/L

Q: What about the DBIL (24 h) of the same compound?
A: 0.008 mg/dL

Q: What about the GLC (24 h) of the same compound?
A: 210.6 mg/dL

Q: And the IP (24 h)?
A: 9 mg/dL

Q: And the K (24 h)?
A: 4.8 meq/L

Q: What about the LDH (24 h) of the same compound?
A: 89.2 IU/L

Q: What about the Na (24 h) of the same compound?
A: 139.6 meq/L

Q: And the PL (24 h)?
A: 163.4 mg/dL

Q: What about the RALB (24 h) of the same compound?
A: 3.7 g/dL

Q: What about the TBIL (24 h) of the same compound?
A: 0.3 mg/dL

Q: And the TC (24 h)?
A: 83.2 mg/dL

Q: And the TG (24 h)?
A: 109.2 mg/dL

Q: What about the TP (24 h) of the same compound?
A: 5.8 g/dL

Q: What about the gamma-GTP (24 h) of the same compound?
A: 1.6 IU/L
